In ChEMBL document CHEMBL1268885, “Subtype-selective Na(v)1.8 sodium channel blockers: identification of potent, orally active nicotinamide derivatives” (Bioorg Med Chem Lett, 2010):
In brackets after ≈: the same amount, converted by molar mass.

What was measured:
[1] = target: Sodium channel protein type 10 subunit alpha (Homo sapiens, UniProt Q9Y5Y9); assay: Inhibition of human NaV1.8 by electrophysiology
[2] = target: Sodium channel protein type 10 subunit alpha (Mus musculus, UniProt Q6QIY3); assay: Inhibition of mouse NaV1.8 by isotopic flux assay
Sequence of Sodium channel protein type 10 subunit alpha (Mus musculus, UniProt Q6QIY3) (Q6QIY3 whole entry): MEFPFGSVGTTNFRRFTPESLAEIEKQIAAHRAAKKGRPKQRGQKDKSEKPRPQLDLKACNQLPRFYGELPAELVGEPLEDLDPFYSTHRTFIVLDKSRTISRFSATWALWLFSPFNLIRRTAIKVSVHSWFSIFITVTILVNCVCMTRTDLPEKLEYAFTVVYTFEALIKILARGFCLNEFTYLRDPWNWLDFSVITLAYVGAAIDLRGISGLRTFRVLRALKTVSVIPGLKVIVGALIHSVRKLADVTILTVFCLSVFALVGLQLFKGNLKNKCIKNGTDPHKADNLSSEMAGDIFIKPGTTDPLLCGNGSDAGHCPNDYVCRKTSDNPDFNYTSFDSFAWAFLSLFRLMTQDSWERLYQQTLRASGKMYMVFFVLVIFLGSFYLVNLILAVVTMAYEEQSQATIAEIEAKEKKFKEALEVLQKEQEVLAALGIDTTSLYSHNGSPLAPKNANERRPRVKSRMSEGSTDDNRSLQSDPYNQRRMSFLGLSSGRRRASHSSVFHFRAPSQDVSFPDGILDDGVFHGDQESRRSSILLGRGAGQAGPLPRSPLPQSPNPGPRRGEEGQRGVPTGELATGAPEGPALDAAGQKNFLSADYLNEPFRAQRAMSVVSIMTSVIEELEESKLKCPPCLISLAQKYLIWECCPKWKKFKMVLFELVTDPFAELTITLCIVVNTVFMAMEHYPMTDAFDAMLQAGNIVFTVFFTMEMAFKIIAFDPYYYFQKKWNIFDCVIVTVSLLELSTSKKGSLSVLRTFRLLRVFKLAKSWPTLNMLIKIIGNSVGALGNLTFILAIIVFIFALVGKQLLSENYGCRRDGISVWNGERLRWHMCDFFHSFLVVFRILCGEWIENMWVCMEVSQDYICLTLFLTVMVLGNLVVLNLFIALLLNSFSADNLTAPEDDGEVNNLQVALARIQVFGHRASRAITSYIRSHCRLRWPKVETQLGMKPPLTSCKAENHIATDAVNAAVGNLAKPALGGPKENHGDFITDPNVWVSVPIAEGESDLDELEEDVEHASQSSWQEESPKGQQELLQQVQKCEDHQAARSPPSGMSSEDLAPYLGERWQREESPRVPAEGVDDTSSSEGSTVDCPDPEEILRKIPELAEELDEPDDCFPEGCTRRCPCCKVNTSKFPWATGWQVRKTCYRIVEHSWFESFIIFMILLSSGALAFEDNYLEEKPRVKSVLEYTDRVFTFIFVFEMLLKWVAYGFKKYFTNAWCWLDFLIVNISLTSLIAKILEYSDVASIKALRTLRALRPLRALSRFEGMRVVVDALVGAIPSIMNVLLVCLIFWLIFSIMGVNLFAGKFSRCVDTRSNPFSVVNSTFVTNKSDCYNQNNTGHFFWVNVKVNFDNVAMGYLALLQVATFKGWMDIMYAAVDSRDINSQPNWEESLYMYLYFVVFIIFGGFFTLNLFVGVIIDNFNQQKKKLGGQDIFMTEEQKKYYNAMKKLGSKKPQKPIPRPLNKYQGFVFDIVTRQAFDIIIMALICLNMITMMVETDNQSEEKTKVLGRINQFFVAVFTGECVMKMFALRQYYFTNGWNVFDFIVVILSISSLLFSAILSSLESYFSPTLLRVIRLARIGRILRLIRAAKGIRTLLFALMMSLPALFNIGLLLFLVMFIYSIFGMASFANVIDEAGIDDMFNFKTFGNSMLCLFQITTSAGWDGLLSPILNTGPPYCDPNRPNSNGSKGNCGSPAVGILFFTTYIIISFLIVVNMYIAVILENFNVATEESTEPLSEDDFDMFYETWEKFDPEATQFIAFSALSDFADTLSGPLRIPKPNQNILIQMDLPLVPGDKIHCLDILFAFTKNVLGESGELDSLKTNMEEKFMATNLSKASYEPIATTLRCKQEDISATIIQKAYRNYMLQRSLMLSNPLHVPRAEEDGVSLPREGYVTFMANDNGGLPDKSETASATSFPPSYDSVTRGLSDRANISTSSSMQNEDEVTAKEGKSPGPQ

Homo sapiens [3] = species on record: Homo sapiens; assay: Selectivity ratio of IC50 for human ERG to IC50 for human Nav1.8
[4] = target: Sodium channel protein type 10 subunit alpha (Rattus norvegicus, UniProt Q62968); assay: Inhibition of tetrodotoxin-resistant NaV1.8 in rat DRG neuron by electrophysiology
Homo sapiens [5] = species on record: Homo sapiens; assay: Selectivity ratio of IC50 for human NAv1.2 to IC50 for human Nav1.8
[6] = Oral bioavailability in rat at 3 mg/kg; assay type: ADME, organism-based; settings: in vivo
[7] = Aqueous solubility of the compound; assay type: physicochemical; settings: buffer
[8] = target: Sodium channel protein type 2 subunit alpha (Homo sapiens, UniProt Q99250); assay: Inhibition of human NaV1.2 by electrophysiology
[9] = target: Sodium channel protein type 5 subunit alpha (Homo sapiens, UniProt Q14524); assay: Inhibition of human NaV1.5 by electrophysiology
[10] = target: Transient receptor potential cation channel subfamily V member 1 (Homo sapiens, UniProt Q8NER1); assay: Inhibition of TRPV1
Sequence of Transient receptor potential cation channel subfamily V member 1 (Q8NER1 whole entry): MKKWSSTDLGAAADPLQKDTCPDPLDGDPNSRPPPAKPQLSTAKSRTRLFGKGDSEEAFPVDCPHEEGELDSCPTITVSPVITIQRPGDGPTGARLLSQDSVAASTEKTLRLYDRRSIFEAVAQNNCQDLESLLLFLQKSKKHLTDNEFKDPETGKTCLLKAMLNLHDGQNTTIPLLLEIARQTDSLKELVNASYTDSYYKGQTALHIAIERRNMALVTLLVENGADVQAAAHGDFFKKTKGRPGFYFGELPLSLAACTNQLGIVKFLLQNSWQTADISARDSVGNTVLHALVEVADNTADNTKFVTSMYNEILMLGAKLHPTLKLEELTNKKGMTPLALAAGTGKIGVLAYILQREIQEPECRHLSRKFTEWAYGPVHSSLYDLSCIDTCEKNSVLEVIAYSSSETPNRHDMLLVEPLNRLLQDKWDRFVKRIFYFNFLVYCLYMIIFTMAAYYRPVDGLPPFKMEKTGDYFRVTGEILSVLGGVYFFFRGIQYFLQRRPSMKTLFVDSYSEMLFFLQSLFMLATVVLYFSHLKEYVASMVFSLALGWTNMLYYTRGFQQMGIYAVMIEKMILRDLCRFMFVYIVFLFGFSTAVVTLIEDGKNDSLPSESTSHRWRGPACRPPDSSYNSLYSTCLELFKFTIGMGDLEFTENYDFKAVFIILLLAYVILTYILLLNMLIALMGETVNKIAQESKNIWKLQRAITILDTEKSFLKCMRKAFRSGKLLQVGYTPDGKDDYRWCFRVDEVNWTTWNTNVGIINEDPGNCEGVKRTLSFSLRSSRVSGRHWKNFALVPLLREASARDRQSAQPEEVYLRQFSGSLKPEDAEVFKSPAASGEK

Rattus norvegicus [11] = species on record: Rattus norvegicus; assay: Analgesic activity in rat Chung model of neuropathic pain; assay type: functional
[12] = target: Voltage-dependent N-type calcium channel subunit alpha-1B (Homo sapiens, UniProt Q00975); assay: Inhibition of CaV2.2
[13] = target: T1, P2X2/P2X3 heterotrimeric receptor (Homo sapiens, UniProt P56373+Q9UBL9); assay: Inhibition of P2X2/3 receptor; assay type: protein-complex assay
T1 sequence (Q9UBL9 whole entry): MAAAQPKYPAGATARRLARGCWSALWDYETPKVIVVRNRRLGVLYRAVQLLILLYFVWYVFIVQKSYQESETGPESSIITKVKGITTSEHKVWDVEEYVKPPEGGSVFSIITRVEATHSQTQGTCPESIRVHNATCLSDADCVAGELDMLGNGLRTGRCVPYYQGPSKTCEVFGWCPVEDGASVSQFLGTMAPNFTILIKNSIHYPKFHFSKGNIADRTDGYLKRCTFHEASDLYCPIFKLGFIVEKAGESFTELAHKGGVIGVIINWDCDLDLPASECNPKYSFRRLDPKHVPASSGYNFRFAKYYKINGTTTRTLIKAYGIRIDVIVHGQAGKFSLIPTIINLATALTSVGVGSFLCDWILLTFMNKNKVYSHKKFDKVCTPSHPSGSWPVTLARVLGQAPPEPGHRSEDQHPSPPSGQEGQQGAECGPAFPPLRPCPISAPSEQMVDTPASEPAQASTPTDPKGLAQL
T1 sequence (P56373 whole entry): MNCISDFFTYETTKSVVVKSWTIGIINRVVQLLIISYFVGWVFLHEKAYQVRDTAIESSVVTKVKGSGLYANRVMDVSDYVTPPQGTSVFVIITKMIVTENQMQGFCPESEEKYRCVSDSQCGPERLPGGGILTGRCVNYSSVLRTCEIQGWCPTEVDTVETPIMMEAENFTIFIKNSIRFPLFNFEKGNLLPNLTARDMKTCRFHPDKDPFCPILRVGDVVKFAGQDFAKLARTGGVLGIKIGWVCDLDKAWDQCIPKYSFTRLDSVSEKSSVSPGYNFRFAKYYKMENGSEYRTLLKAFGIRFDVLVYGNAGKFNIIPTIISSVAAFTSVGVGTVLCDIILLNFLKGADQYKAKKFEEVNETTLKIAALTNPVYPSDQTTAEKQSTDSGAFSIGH

[14] = target: Voltage-gated potassium channel, KQT; KCNQ2(Kv7.2)/KCNQ3(Kv7.3) (Homo sapiens, UniProt O43525+O43526); assay: Inhibition of KCNQ2/Q3; assay type: protein-complex assay
[15] = Ratio of drug level in brain to plasma in rat; assay type: ADME, cell-free; settings: read-out: BPR
Plasma = assay: (§1) Plasma protein binding in rat; assay type: ADME, cell-free
[16] = Plasma clearance in rat; assay type: ADME, organism-based
[17] = target: Voltage-gated inwardly rectifying potassium channel KCNH2 (Homo sapiens, UniProt Q12809); assay: Inhibition of human ERG by Isotopic flux assay
Rattus norvegicus [18] = species on record: Rattus norvegicus; assay: Analgesic activity in rat Chung model of neuropathic pain assessed as decrease in von Frey filament-induced pain; assay type: functional
[19] = Volume of distribution at steady state in rat; assay type: ADME, organism-based; settings: in vivo, read-out: Vdss
[20] = Inhibition of chloride channel at 10 uM
[21] = Cmax in rat; assay type: ADME, organism-based; settings: in vivo
[22] = Intrinsic clearance in rat microsomes after 1 hr; assay type: ADME, Microsome
[23] = Intrinsic clearance in human microsomes; assay type: ADME, Microsome
[24] = as §1; assay type: ADME, cell-free; settings: read-out: PPB (converted)
[25] = Inhibition of benzodiazepine receptor at 10 uM

Sequence of Sodium channel protein type 10 subunit alpha (Homo sapiens, UniProt Q9Y5Y9) (Q9Y5Y9 whole entry): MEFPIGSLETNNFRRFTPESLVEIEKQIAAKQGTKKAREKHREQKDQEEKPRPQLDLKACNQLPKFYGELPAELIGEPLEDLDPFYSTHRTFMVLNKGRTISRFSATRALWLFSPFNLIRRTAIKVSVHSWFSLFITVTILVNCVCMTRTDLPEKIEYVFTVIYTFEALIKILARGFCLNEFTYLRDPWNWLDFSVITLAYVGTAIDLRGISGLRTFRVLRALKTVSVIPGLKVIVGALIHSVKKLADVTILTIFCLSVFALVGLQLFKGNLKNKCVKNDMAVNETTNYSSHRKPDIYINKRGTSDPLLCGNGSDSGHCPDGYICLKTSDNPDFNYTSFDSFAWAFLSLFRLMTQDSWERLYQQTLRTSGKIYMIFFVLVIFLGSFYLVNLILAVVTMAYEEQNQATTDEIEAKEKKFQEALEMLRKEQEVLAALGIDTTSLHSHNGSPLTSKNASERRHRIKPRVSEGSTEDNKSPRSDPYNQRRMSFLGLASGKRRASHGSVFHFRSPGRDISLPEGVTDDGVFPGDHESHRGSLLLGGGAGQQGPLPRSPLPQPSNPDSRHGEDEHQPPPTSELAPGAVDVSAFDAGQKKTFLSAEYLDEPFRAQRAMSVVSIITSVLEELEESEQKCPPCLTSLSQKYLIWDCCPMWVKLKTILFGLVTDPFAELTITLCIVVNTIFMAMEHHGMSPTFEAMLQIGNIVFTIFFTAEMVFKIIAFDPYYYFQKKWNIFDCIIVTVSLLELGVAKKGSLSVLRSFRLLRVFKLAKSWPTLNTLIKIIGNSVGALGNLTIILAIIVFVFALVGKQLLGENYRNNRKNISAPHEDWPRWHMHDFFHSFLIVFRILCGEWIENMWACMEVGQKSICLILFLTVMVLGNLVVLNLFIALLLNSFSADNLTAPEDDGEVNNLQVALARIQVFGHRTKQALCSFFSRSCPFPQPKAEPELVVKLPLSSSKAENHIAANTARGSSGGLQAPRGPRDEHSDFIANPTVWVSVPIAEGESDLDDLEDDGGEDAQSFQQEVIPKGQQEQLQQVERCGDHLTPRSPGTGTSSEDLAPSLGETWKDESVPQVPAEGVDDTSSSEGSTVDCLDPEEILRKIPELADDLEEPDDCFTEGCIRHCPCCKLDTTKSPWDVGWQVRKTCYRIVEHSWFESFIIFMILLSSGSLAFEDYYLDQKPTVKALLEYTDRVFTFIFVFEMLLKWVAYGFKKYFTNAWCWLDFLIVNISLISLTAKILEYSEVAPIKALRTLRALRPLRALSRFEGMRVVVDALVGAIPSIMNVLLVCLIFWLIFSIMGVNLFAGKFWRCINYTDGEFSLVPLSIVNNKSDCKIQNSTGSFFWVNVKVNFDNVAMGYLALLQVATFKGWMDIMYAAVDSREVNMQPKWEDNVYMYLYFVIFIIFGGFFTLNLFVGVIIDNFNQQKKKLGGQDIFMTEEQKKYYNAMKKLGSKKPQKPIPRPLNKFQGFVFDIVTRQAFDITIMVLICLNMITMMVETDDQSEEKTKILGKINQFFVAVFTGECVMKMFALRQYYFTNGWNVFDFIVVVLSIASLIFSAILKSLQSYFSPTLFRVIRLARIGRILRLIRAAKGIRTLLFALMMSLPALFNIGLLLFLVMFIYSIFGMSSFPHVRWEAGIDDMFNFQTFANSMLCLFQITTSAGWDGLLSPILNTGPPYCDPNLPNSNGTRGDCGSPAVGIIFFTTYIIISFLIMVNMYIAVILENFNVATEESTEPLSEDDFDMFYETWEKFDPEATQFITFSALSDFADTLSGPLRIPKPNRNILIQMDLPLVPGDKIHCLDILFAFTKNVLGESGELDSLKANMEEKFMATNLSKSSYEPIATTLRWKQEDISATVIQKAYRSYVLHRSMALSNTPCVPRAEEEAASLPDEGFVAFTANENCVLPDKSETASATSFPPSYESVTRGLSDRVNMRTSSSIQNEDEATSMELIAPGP

SMILES: Cc1cc(C)cc(NC(=O)c2cccc(-c3ccc(OC(F)(F)F)cc3)n2)c1
- IC50 [1]: 64 nM
- IC50 [2]: 1500 nM
- Ratio IC50 (Homo sapiens [3]): > 30
- IC50 [4]: 510 nM
- Ratio IC50 (Homo sapiens [5]): > 30

SMILES: COc1cc(NC(=O)c2ccc(-c3ccc(Cl)cc3)o2)cc(OC)c1
- bioavailability [6]: 10%
- IC50 [4]: 125 nM
- Ratio IC50 (Homo sapiens [5]): 100
- solubility [7]: < 0.1 µg/mL

SMILES: Cc1cc(C)cc(NC(=O)c2cncc(-c3ccc(OC(F)(F)F)cc3)c2)c1
- IC50 [1]: 26 nM
- IC50 [2]: 530 nM
- Ratio IC50 (Homo sapiens [3]): > 30
- IC50 [4]: 97 nM
- Ratio IC50 (Homo sapiens [5]): > 30

SMILES: Cc1ncccc1CNC(=O)c1cncc(-c2ccc(Cl)cc2)c1
- IC50 [2]: 2600 nM

SMILES: O=C(NCc1ccccc1)c1cncc(-c2ccc(Cl)cc2)c1
- IC50 [1]: 22 nM
- IC50 [8]: 1900 nM
- IC50 [2]: 620 nM
- IC50 [4]: 85 nM

SMILES: O=C(NCc1ccccc1N1CCCCC1)c1cncc(-c2ccc(Cl)cc2)c1
- IC50 [1]: 8 nM
- IC50 [8]: 50 nM
- IC50 [2]: < 30 nM
- IC50 [4]: 45 nM

SMILES: O=C(NCc1ccccc1N1CCOCC1)c1cncc(-c2ccc(Cl)cc2)c1
- IC50 [1]: 10 nM
- IC50 [8]: 120 nM
- IC50 [2]: 32 nM
- IC50 [4]: 130 nM

SMILES: O=C(NCc1cccnc1N1CCCCC1)c1cncc(-c2ccc(Cl)cc2)c1
- IC50 [1]: 14 nM
- IC50 [8]: 70 nM
- IC50 [2]: 26 nM
- IC50 [4]: 8 nM

SMILES: O=C(NCc1ccccc1Cl)c1cncc(-c2ccc(Cl)cc2)c1
- IC50 [1]: 4 nM
- IC50 [8]: 1200 nM
- IC50 [2]: 81 nM
- IC50 [4]: 66 nM

SMILES: Cc1cc(C)cc(NC(=O)c2ccc(-c3ccc(OC(F)(F)F)cc3)o2)c1
- IC50 [1]: 2 nM
- IC50 [2]: 290 nM
- Ratio IC50 (Homo sapiens [3]): > 30
- IC50 [4]: 130 nM
- Ratio IC50 (Homo sapiens [5]): > 30

SMILES: O=C(NCc1cccnc1OCC(F)(F)F)c1cncc(-c2ccc(Cl)cc2)c1
- IC50 [9]: 4700 nM
- IC50 [10]: > 10000 nM
- ED50 (Rattus norvegicus [11]): 65 mg/kg
- IC50 [12]: > 10000 nM
- IC50 [1]: 3 nM
- IC50 [8]: 2800 nM
- IC50 [13]: > 10000 nM
- IC50 [14]: > 10000 nM
- Kp [15]: 1
- PPB (Plasma): 98.7%
- clearance [16]: 10 mL/min/kg
- IC50 [17]: 19000 nM
- IC50 [2]: 87 nM
- bioavailability [6]: 95%
- Emax (Rattus norvegicus [18]): 66%
- Vd [19]: 2 L/kg
- inhibition [20]: > 70%
- Cmax [21]: 350 ng/mL
- microsomal CLint [22]: 68 µL/min/mg
- IC50 [4]: 28 nM
- solubility [7]: 3.1 µg/mL (≈ 7.35 µM)

SMILES: Cc1cc(C)cc(NC(=O)c2csc(-c3ccc(OC(F)(F)F)cc3)n2)c1
- IC50 [1]: 51 nM
- IC50 [2]: 400 nM
- Ratio IC50 (Homo sapiens [3]): > 30
- microsomal CLint [22]: > 300 µL/min/mg
- IC50 [4]: 380 nM
- microsomal CLint [23]: > 300 µL/min/mg
- Ratio IC50 (Homo sapiens [5]): > 30

SMILES: Cc1cc(C)cc(NC(=O)c2cncc(-c3ccc(F)cc3)c2)c1
- IC50 [1]: 100 nM
- IC50 [2]: 1900 nM
- Ratio IC50 (Homo sapiens [3]): > 30
- IC50 [4]: 210 nM
- Ratio IC50 (Homo sapiens [5]): > 30

SMILES: Cc1cc(C)cc(NC(=O)c2cncc(-c3ccc(C#N)cc3)c2)c1
- IC50 [9]: > 30000 nM
- IC50 [10]: > 10000 nM
- ED50 (Rattus norvegicus [11]): 72 mg/kg
- IC50 [12]: > 10000 nM
- IC50 [1]: 23 nM
- IC50 [13]: > 10000 nM
- IC50 [14]: > 10000 nM
- Kp [15]: 1.3
- fraction unbound [24]: 0.005
- clearance [16]: 16.7 mL/min/kg
- IC50 [17]: 16000 nM
- IC50 [2]: 190 nM
- bioavailability [6]: 17%
- inhibition [25]: > 70%
- Emax (Rattus norvegicus [18]): 60%
- Vd [19]: 0.5 L/kg
- Ratio IC50 (Homo sapiens [3]): > 30
- Cmax [21]: 740 ng/mL
- microsomal CLint [22]: 270 µL/min/mg
- IC50 [4]: 91 nM
- Ratio IC50 (Homo sapiens [5]): > 30
- solubility [7]: 1.4 µg/mL (≈ 4.28 µM)

SMILES: O=C(NCc1cccnc1Cl)c1cncc(-c2ccc(Cl)cc2)c1
- IC50 [1]: 140 nM
- IC50 [8]: 18000 nM
- IC50 [2]: 680 nM
- IC50 [4]: 560 nM

SMILES: Cc1cc(C)cc(NC(=O)c2nc(-c3ccc(OC(F)(F)F)cc3)no2)c1
- IC50 [1]: 470 nM
- IC50 [2]: 870 nM
- Ratio IC50 (Homo sapiens [3]): > 30
- IC50 [4]: 820 nM
- Ratio IC50 (Homo sapiens [5]): > 30

SMILES: Cc1cc(C)cc(NC(=O)c2coc(-c3ccc(OC(F)(F)F)cc3)n2)c1
- IC50 [1]: 180 nM
- IC50 [2]: 1400 nM
- Ratio IC50 (Homo sapiens [3]): > 30
- IC50 [4]: 2000 nM
- Ratio IC50 (Homo sapiens [5]): > 30

SMILES: Cc1cc(C)cc(NC(=O)c2cncc(-c3ccc(Cl)cc3)c2)c1
- IC50 [1]: 9 nM
- IC50 [2]: 610 nM
- Ratio IC50 (Homo sapiens [3]): > 30
- IC50 [4]: 87 nM
- Ratio IC50 (Homo sapiens [5]): > 30

SMILES: Cc1ccccc1CNC(=O)c1cncc(-c2ccc(Cl)cc2)c1
- IC50 [1]: 2 nM
- IC50 [8]: 110 nM
- IC50 [2]: < 30 nM
- IC50 [4]: 9 nM

SMILES: Cc1cc(C)cc(NC(=O)c2nsc(-c3ccc(OC(F)(F)F)cc3)n2)c1
- IC50 [1]: 8 nM
- IC50 [2]: 280 nM
- Ratio IC50 (Homo sapiens [3]): > 30
- microsomal CLint [22]: > 300 µL/min/mg
- IC50 [4]: 520 nM
- microsomal CLint [23]: > 300 µL/min/mg
- Ratio IC50 (Homo sapiens [5]): > 30

SMILES: O=C(NCc1cccnc1)c1cncc(-c2ccc(Cl)cc2)c1
- IC50 [2]: 7900 nM

SMILES: O=C(NCc1cccnc1N1CCOCC1)c1cncc(-c2ccc(Cl)cc2)c1
- IC50 [1]: 87 nM
- IC50 [8]: 1600 nM
- IC50 [2]: 340 nM
- IC50 [4]: 98 nM
- solubility [7]: > 50 µg/mL

SMILES: Cc1cc(C)cc(NC(=O)c2cnc(-c3ccc(OC(F)(F)F)cc3)o2)c1
- IC50 [1]: 280 nM
- IC50 [2]: 340 nM
- Ratio IC50 (Homo sapiens [3]): > 30
- IC50 [4]: 950 nM
- Ratio IC50 (Homo sapiens [5]): > 30

SMILES: Cc1cc(C)cc(NC(=O)c2cncc(-c3ccc(OC(F)(F)F)cc3)n2)c1
- IC50 [1]: 21 nM
- IC50 [2]: 57 nM
- Ratio IC50 (Homo sapiens [3]): > 30
- IC50 [4]: 34 nM
- Ratio IC50 (Homo sapiens [5]): > 30

SMILES: Cc1cc(C)cc(NC(=O)c2ccnc(-c3ccc(OC(F)(F)F)cc3)c2)c1
- IC50 [1]: 780 nM
- IC50 [2]: 11000 nM
- Ratio IC50 (Homo sapiens [3]): > 30
- Ratio IC50 (Homo sapiens [5]): > 30

SMILES: CCOc1ncccc1CNC(=O)c1cncc(-c2ccc(Cl)cc2)c1
- IC50 [1]: 7 nM
- IC50 [8]: 670 nM
- IC50 [2]: 88 nM
- IC50 [4]: 32 nM
